{"source": "patent US20180193336A1", "about": "“SPRAY DRY FORMULATIONS” (Pulmokine, Inc., priority 2013, published 2018)", "key": {"[1]": {"molecular_target": "PDGFRbeta (Homo sapiens, UniProt P09619)", "sequence (P09619 600-962 limits assumed)": "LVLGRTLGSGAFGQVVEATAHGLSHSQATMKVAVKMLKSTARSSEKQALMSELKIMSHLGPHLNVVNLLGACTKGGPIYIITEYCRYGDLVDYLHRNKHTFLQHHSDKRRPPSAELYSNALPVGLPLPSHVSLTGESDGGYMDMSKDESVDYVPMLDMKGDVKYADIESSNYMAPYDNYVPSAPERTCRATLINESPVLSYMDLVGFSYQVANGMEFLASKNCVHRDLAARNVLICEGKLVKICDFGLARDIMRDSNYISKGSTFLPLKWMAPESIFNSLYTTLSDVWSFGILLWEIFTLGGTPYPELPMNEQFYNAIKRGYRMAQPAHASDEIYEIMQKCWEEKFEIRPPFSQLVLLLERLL", "conditions": "FIG. 25", "procedure": "A Z-lyte kinase assay was performed to determine the inhibition of PDGFRalpha and PDGFRbeta mediated phosphorylation by PK10453 (Structure 2). Ten point titration curves were modeled to calculate the IC50 (Invitrogen Select Screen®)."}, "[2]": {"system": "PDGFBB stimulated phosphorylation of ERK1 and ERK2", "experiment": "PDGFBB stimulated phosphorylation of ERK1 and ERK2 in human fetal lung fibroblasts", "assay_type": "cell-based", "description": "Data shown are mean±SEM. […] PK10453=structure 2; PK10571=structure 2a. Platelet derived growth factor receptor alpha=PDGFR-alpha=PDGFR-α=PDGF receptor alpha=PDGF alpha receptor. Platelet derived growth factor receptor beta=PDGFR-beta=PDGFRβ=PDGF receptor beta=PDGF beta receptor."}, "[3]": {"system": "PDGFBB stimulated AKT phosphorylation", "experiment": "In cell Western, PDGFBB stimulated AKT phosphorylation in human fetal lung fibroblasts", "assay_type": "cell-based", "conditions": "for IC50: Fibroblast", "procedure": "HLFs were maintained in subculture at no more than 6 passages in DMEM with 5% FBS and 4 mM Glutamax at 37° C., 5% CO2. HLFs were plated and grown to 70-80% confluence in 96 well plates then serum-starved for 48 hours. […] Antibodies were detected using IRDye 680LT goat anti-mouse IgG and IRDye 800 W goat α-rabbit IgG conjugated antibodies. After washing, the signal was quantified using an Odyssey Infrared Imaging System (LI-COR). Phosphoprotein signal (800 nm) was normalized to total protein signal (700 nm) acquired from each well and experimental duplicates on same plate were averaged and reported."}, "[4]": {"system": "rat MCT+PN model", "experiment": "Pulmonary arteriole morphometry and occlusion analysis in rat MCT+PN model", "assay_type": "in vivo", "description": "At the end of the study, the heart and lungs were removed from ventilated animals under general anesthesia. Heparinized saline was infused under pressure through the main pulmonary artery. The right upper lobe was immediately tied off and placed in liquid nitrogen for Western blot and NanoPro 100 assay analysis. The heart was removed, and the RV free wall, interventricular septum and LV free wall dissected and weighed. Buffered formalin (10%) was infused under pressure both through the pulmonary artery and the trachea. Morphometric analysis was performed on H&E stained formalin fixed tissue sectioned at 8 μm. The media area and lumen area of pulmonary arterioles were measured with Image J software by a technician blinded to treatment group. Measurements were made on 20 pulmonary arterioles per section. The ratio of the lumen area to the total media area was determined. This ratio normalizes the variation in total pulmonary arteriole area. In addition, occlusive analysis was performed in the monocrotaline plus pneumonectomy study (specifically efficacy study 5) according to the method of Homma et al., “Involvement of RhoA/Rho kinase signaling in protection against monocrotaline-induced pulmonary hypertension in pneumonectomized rats by dehydroepiandrosterone.” Am J Physiol Lung Cell Mol Physiol. Vol. 295:L71-8 (2008). Briefly, pre-capillary arterioles were assigned grade 0 for no evidence of neointimal lesions, grade 1 for less than 50% luminal occlusion, and grade 2 for greater than 50% occlusion. Masson Trichrome stains were performed on lung sections from the MCT+PN model."}, "[5]": {"system": "rat MCT model", "experiment": "Efficacy in rat MCT model, PK10453 dose response", "assay_type": "in vivo", "procedure": "Male Sprague Dawley rats received MCT 60 mg/kg IPMCT, and after 3 weeks, PK10453 (Structure 2) or vehicle control were administered by inhalation. Four groups were studied: vehicle control (4 min exposure) and three treatment groups of PK10453 (Structure 2) with exposure times 2 min (D2), 4 min (D4), or 8 min (D8) three times a day. These regimens were administered for two weeks. The vehicle consisted of aerosolized 1M tosylic acid neutralized with ammonia vapor as described above. The pH of a solution prepared by dissolving captured aerosol particles in water was measured for every dose and was consistently in the range of 5.5-6.0. At the end of the study, the RV systolic pressure was measured, and the heart chambers dissected and weighed."}, "[6]": {"experiment": "Pharmacokinetic study, inhaled vs intravenous, lung and plasma levels", "assay_type": "in vivo, rat", "conditions": "[(AUClung/AUCplasma)respiratory]/[(AUClung/AUCplasma)IV]", "procedure": "PK10453 (Structure 2) was administered intravenously or by inhalation to animals, which were then euthanized at time 0, 10, 20, and 60 min (n=3 each time point). Blood samples were taken by cardiac puncture, and the lungs excised. The lungs were homogenized and PK10453 (Structure 2) extracted with a 1:3 mixture of acetonitrile:methanol. Similarly, plasma was extracted with a 1:3 mixture of acetonitrile:methanol. Drug was assayed by LC MS/MS (PharmOptima Inc., Portage Mich.). First order exponential curves were fit to the data with Excel. AUC was determined with the trapezoidal method of integration.\nFor the pharmacokinetic study, the concentration of PK10453 (Structure 2) in lung when administered by inhalation was compared to the concentration achieved with IV administration. As described in Moren “Aerosols in medicine: principles, diagnosis, and therapy.” Amsterdam; New York: Elsevier, xx, 429 (1993) and Phalen et al., “Inhalation exposure methodology.” Environ Health Perspect 56:23-34 (1984)), it is possible to estimate the pharmacokinetic advantage of inhalation relative to intravenous administration, Rd, by comparing the AUC of a plot of the drug concentration as a function of time following respiratory and IV administration: […]\nThe pharmacokinetic data was modeled to a first order exponential curve, and the AUC calculated from the curves (see Table 2). […]"}, "[7]": {"system": "rat MCT+PN model", "experiment": "Telemetry of pulmonary artery pressure in rat MCT+PN model", "assay_type": "in vivo", "conditions": "for PA systolic pressure: separate MCT+PN telemetry study", "procedure": "Pneumonectomy and implantation of a TRM53P telemetry monitor in the pulmonary artery (Telemetry Research, New Zealand and ADInstruments, Colorado) was carried out in rats. Two weeks after MCT, PK10453 (Structure 2) was administered three times daily for 1 week. […] The two groups underwent 4 min exposures of either the vehicle control or PK10453 (Structure 2). Sampling of PA pressure was performed 5 min before each morning dose in ambulatory animals in room air (estimated atmospheric pressure 716 mm Hg based on elevation of animal facility). […] Telemetry data was obtained for 10 min daily before each morning dose for this protocol."}}, "note": "Values joined by “and” are separate entries in the source; they are usually repeats but may differ in a detail not shown here. Equal entries are not always repeated. Where two headings read alike, the source gives them in different places.", "data": [{"compound": "COc1cc(-c2cncc(N[C@@H](C)c3cccc(NC(=O)c4cncc(C)c4)c3)n2)ccc1O", "note": "[PK10453, (S)—N-(3-(1-((6-(4-hydroxy-β-methoxyphenyl)pyrazin-2yl)amino)ethyl)phenyl)-5-methylnicotinamide]", "values": [{"measurement": "potency against PDGFR beta kinase domain relative to imatinib", "setting": "[1]", "result": "more potent than imatinib"}, {"measurement": "decrease of PDGF BB stimulated ppERK1 and ppERK2 relative to imatinib", "setting": "[2]; 1 uM and 10 uM", "result": "more effective"}, {"measurement": "decrease of PDGFBB stimulated ppERK1 formation", "setting": "[2]; 1 uM, PDGF BB 10 ng/ml", "result": "effective"}, {"measurement": "ratio diphosphorylated ERK2 to total ERK2 (ppERK2/ERK2)", "setting": "[2]; PDGFAA or PDGFBB stimulation (10 ng/ml), 1 uM and 10 uM", "result": "significantly decreased"}, {"measurement": "ratio diphosphorylated ERK1 to total ERK1 (ppERK1/ERK1)", "setting": "[2]; PDGFAA or PDGFBB stimulation, 1 μM and 10 μM", "result": "significantly decreased"}, {"measurement": "IC50", "setting": "[3]; human fetal lung fibroblasts, 10 ng/ml PDGFBB, read-out: IC50 for PDGFBB stimulated AKT phosphorylation at Ser473", "result": 130, "unit": "nM"}, {"measurement": "IC50", "setting": "[3]; human fetal lung fibroblasts, 10 ng/ml PDGFBB, read-out: IC50 for PDGFBB stimulated AKT phosphorylation at Thr308", "result": 430, "unit": "nM"}, {"measurement": "IC50", "setting": "[3]; human fetal lung fibroblasts, legend of FIG. 2 PANEL C, read-out: IC50 for PDGFBB stimulation of pAKT(Ser473)", "result": 130, "unit": "nM"}, {"measurement": "IC50", "setting": "[3]; Homo sapiens, FIG. 26, each concentration in duplicate, read-out: IC50, PDGF BB stimulated pAKT in human lung fibroblasts", "result": 150, "unit": "nM"}, {"measurement": "IC50 for inhibiting PDGFBB stimulated AKT phosphorylation relative to imatinib", "setting": "[3]; fetal human lung fibroblasts, FIG. 18", "result": "lower IC50 concentration compared to imatinib"}, {"measurement": "Grade 2 occlusion lesions", "setting": "[4]; D4", "result": "28.5±4.2", "unit": "%"}, {"measurement": "lumen area to media area ratio (L/M)", "setting": "[4]; D4, FIG. 7 PANEL C", "result": "0.33±0.06"}, {"measurement": "Grade 2 occlusion lesions", "setting": "[4]; D8", "result": "11.4±4.1", "unit": "%"}, {"measurement": "lumen area to media area ratio (L/M)", "setting": "[4]; D8, FIG. 7 PANEL C", "result": "0.72±0.05"}, {"measurement": "lumen area to media area ratio (L/M)", "setting": "[4]; higher dose D8, FIG. 9", "result": "1.17±0.07"}, {"measurement": "lumen area to media area ratio (L/M)", "setting": "[4]; lower dose D4, FIG. 9", "result": "0.75±0.14"}, {"measurement": "degree of RV hypertrophy, ratio (RV+IVS)/LV weight", "setting": "[5]; rat MCT", "result": "significant reduction"}, {"measurement": "decrease of RV systolic pressure", "setting": "[5]; rat MCT model, discussion", "result": 50, "unit": "%"}, {"measurement": "reduction in RVSP compared to the vehicle treated group", "setting": "[5]; rat MCT, D4", "result": 44, "unit": "%"}, {"measurement": "reduction in RVSP compared to the vehicle treated group", "setting": "[5]; rat MCT, D8", "result": 54, "unit": "%"}, {"measurement": "Rd, pharmacokinetic advantage of inhalation relative to intravenous administration", "setting": "[6]", "result": "44.6 fold and 45 fold and 44.58 fold"}, {"measurement": "efficacy by inhalation in the MCT+PN model", "setting": "[7]; rat MCT+PN", "result": "effective in lowering pulmonary pressures"}, {"measurement": "PA systolic pressure", "setting": "[7]; after five days of treatment", "result": "47.2±3.0", "unit": "mm Hg"}, {"measurement": "PA systolic pressure", "setting": "[7]; treatment day 9", "result": "50.5±7", "unit": "mm Hg"}]}]}
